Data reported in patent US20260184692A1, “HETEROCYCLIC COMPOUNDS, PREPARATION METHODS AND USES THEREOF” (InventisBio Co., Ltd., priority 2022, published 2026).

system: OVCAR3 Cells; assay: OVCAR3 Cell Viability Assay (CellTiter-Glo); format: cell-based; settings: Homo sapiens, OVCAR-3, 144 h, 6 days incubation, read-out: OVCAR3 CTG IC50
Procedure: OVCAR3 Cells (ATCC, Cat #HTB-161) were seeded at a density of 2000 cells/well in a 96-well clear bottom plate (Greiner, Cat #655098) in 100 μL of complete media (RPMI1640+20% FBS+0.01 mg/mL human insulin). One hundred microliter of complete media was added into the blank well (column 1) for low control. Cells were allowed to adhere to the plate overnight in the incubator at 37° C., 5% CO2. On the following day, 0.5 μL of serially-diluted compounds were added to the cells (columns 2-10) and incubated for 6 days at 37 C, 5% CO2 (final 0.5% DMSO concentration); 0.5 μL of DMSO solution was added into the wells (column 11) for high control. Cell viability was detected according to the CellTiter-Glo Luminescent Cell Viability Assay Kit (Promega, Cat #G7573). Luminescence was recorded on the Tecan Spark plate reader. Inhibition rate (IR) of the tested compounds was determined by the following formula: IR (%)=(1−(RLUcompound−RLUlow control)/(RLUhigh control−RLUlow control))×100%. The IC50 value was calculated using the non-linear regression equation: Y=Bottom+(Top−Bottom)/(1+10^((Log IC50−X)×HillSlope)), where X is Log of compound concentration, Y is percent inhibition (IR (%)), Top and Bottom are plateaus in same units as Y.

| Compound | IC50 |
| --- | --- |
| N#Cc1ccc(N2CC3(CCC(F)(F)CC3)c3cc(NS(=O)(=O)CCO)ccc3C2=O)nc1N1CCC(F)(F)CC1 [Compound 78] | < 0.2 µM |
| CC(c1nc(N2CC3(CCC4(CC4)CC3)c3cc(NS(=O)(=O)CCO)ccc3C2=O)ccc1C#N)N1CC(F)(F)C1 (stereo not shown) [Compound 55] | > 2 µM |
| COCCS(=O)(=O)Nc1ccc2c(c1)C1(CCC3(CC3)CC1)CN(c1ccnc(NC3CC(F)(F)C3)n1)C2=O [Compound 148] | 0.2 to 2 µM |
| CN(C)c1ccc(N2CC3(CCC4(CC4)CC3)c3cc(NS(=O)(=O)CCO)ccc3C2=O)nc1N1CCC(F)(F)CC1 [Compound 152] | < 0.2 µM |
| O=C1c2ccc(NS(=O)(=O)CCO)cc2C2(CCC3(CC3)CC2)CN1c1ccc(=O)n(CC2CC(F)(F)C2)n1 [Compound 83] | 0.2 to 2 µM |
| O=C1c2ccc(NS(=O)(=O)CCO)cc2C2(CCC3(CC3)CC2)CN1c1ccc(-c2cc[nH]n2)c(N2CCC(F)(F)CC2)n1 [Compound 180] | < 0.2 µM |
| O=C1c2ccc(NS(=O)(=O)CCO)cc2C2(CCC3(CC3)CC2)CN1c1ccc(F)c(NC2CC(F)(F)C2)n1 [Compound 42] | < 0.2 µM |
| NC(=O)c1ccc(N2CC3(CCC4(CC4)CC3)c3cc(NS(=O)(=O)CCO)ccc3C2=O)nc1NC1CC(F)(F)C1 [Compound 167] | < 0.2 µM |
| O=C1c2ccc(NS(=O)(=O)CCO)cc2C2(CCC(F)(F)CC2)CN1c1ccnc(NC2CC(F)(F)C2)n1 [Compound 97] | 0.2 to 2 µM |
| O=C1c2ncc(NS(=O)(=O)CCO)cc2C2(CCC3(CC3)CC2)CN1c1ccnc(N2CCC(F)(F)CC2)n1 [Compound 64] | 0.2 to 2 µM |
| Cc1nccc(-c2ccc(N3CC4(CCC5(CC5)CC4)c4cc(NS(=O)(=O)CCO)ccc4C3=O)nc2NC2CC(F)(F)C2)n1 [Compound 174] | < 0.2 µM |
| COc1ncc(N2CC3(CCC4(CC4)CC3)c3cc(NS(=O)(=O)CCO)ccc3C2=O)nc1N1CCC(F)(F)CC1 [Compound 146] | < 0.2 µM |
| CC1(CNc2nccc(N3CC4(CCC5(CC5)CC4)c4cc(NS(=O)(=O)CCO)ccc4C3=O)n2)COC1 [Compound 96] | 0.2 to 2 µM |
| COc1ccc(N2CC3(CCC4(CC4)CC3)c3cc(NS(=O)(=O)CCOC(=O)[C@@H](N)C(C)C)ccc3C2=O)nc1N1CCC(F)(F)CC1 [Compound 134] | < 0.2 µM |
| CC(C)(C)NS(=O)(=O)c1cc(N2CC3(CCC4(CC4)CC3)c3cc(NS(=O)(=O)CCO)ccc3C2=O)ccc1C#N [Compound 119] | < 0.2 µM |
| O=C1c2ccc(NS(=O)(=O)CCO)cc2C2(CCC3(CC3)CC2)CN1c1ccc2ncn(CC(F)(F)F)c2n1 [Compound 60] | 0.2 to 2 µM |
| N#Cc1ccc(N2CC3(CCC4(CC4)CC3)c3cc(NS(=O)(=O)CCO)ccc3C2=O)nc1S(=O)(=O)C1CCCC1 [Compound 100] | < 0.2 µM |
| O=C1c2cnc(NS(=O)(=O)CCO)cc2C2(CCC3(CC3)CC2)CN1c1ccc(F)c(N2CCC(F)(F)CC2)n1 [Compound 107] | < 0.2 µM |
| Cc1ccc(-c2ccc(N3CC4(CCC5(CC5)CC4)c4cc(NS(=O)(=O)CCO)ccc4C3=O)nc2N2CCC(F)(F)CC2)cn1 [Compound 161] | < 0.2 µM |
| Cc1cc(N2CC3(CCC4(CC4)CC3)c3cc(NS(=O)(=O)CCO)ccc3C2=O)nc(N2CCC(F)(F)CC2)n1 [Compound 35] | 0.2 to 2 µM |

| Compound | IC50 |
| --- | --- |
| Cn1cc(-c2ccc(N3CC4(CCC5(CC5)CC4)c4cc(NS(=O)(=O)CCO)ccc4C3=O)nc2N2CCC(F)(F)CC2)cn1 [Compound 141] | < 0.2 µM |
| Cc1ccc(N2CC3(CCC4(CC4)CC3)c3cc(NS(=O)(=O)CCO)ccc3C2=O)nc1N1CCC(F)(F)CC1 [Compound 52] | < 0.2 µM |
| CC1(C)CCC2(CC1)CN(c1ccc(C#N)c(NC3CC(F)(F)C3)n1)C(=O)c1cc(F)c(NS(=O)(=O)CCO)cc12 [Compound 121] | < 0.2 µM |
| CN1CCN(c2nc(N3CC4(CCC5(CC5)CC4)c4cc(NS(=O)(=O)CCO)ccc4C3=O)ccc2F)CC1 [Compound 46] | 0.2 to 2 µM |
| CC1CN(c2nc(N3CC4(CCC5(CC5)CC4)c4cc(NS(=O)(=O)CCO)ccc4C3=O)ccc2C#N)CCO1 (stereo not shown) [Compound 63] | < 0.2 µM |
| Cc1cc(NC(=O)c2ccc(NS(=O)(=O)CCO)cc2N2C[C@H]3CCC[C@H]3C2)nc(N2CCC(F)(F)CC2)n1 [Compound 8] | < 0.2 µM |
| O=C1c2ccc(NS(=O)(=O)CCO)cc2C2(CCC3(CC3)CC2)CN1c1ccc(C2CC2)c(N2CCC(F)(F)CC2)n1 [Compound 151] | < 0.2 µM |
| CCS(=O)(=O)Nc1ccc2c(c1)C1(CCC3(CC3)CC1)CN(c1ccnc(NC3CC(F)(F)C3)n1)C2=O [Compound 145] | < 0.2 µM |
| O=C1c2ccc(NS(=O)(=O)CCO)cc2C2(CCC3(CC3)CC2)CN1c1ccc(C(F)(F)F)c(N2CCC(F)(F)CC2)n1 [Compound 154] | < 0.2 µM |
| O=C1c2ccc(NS(=O)(=O)CCO)cc2C2(CCC3(CC3)CC2)CN1c1cccc(CN2CC(F)(F)C2)n1 [Compound 18] | < 0.2 µM |
| O=C1c2ccc(NS(=O)(=O)CCO)cc2C2(CCC3(CC3)CC2)CN1c1cccc(CN2CCC(F)(F)C2)n1 [Compound 19] | < 0.2 µM |
| O=C1c2ccc(NS(=O)(=O)CC(F)(F)F)cc2C2(CCC3(CC3)CC2)CN1c1ccnc(NC2CC(F)(F)C2)n1 [Compound 166] | > 2 µM |
| CN1CC=C(c2ccc(N3CC4(CCC5(CC5)CC4)c4cc(NS(=O)(=O)CCO)ccc4C3=O)nc2N2CCC(F)(F)CC2)CC1 [Compound 176] | 0.2 to 2 µM |
| O=C1c2ccc(NS(=O)(=O)CCO)cc2C2(CCC3(CC3)CC2)CN1c1ccnc(NCCC(F)(F)F)n1 [Compound 84] | < 0.2 µM |
| Cn1cnc(-c2ccc(N3CC4(CCC5(CC5)CC4)c4cc(NS(=O)(=O)CCO)ccc4C3=O)nc2N2CCC(F)(F)CC2)n1 [Compound 175] | < 0.2 µM |
| CN1CCN(c2ccc(N3CC4(CCC5(CC5)CC4)c4cc(NS(=O)(=O)CCO)ccc4C3=O)nc2N2CCC(F)(F)CC2)C(=O)C1 [Compound 178] | < 0.2 µM |
| NC(=O)c1ncc(N2CC3(CCC4(CC4)CC3)c3cc(NS(=O)(=O)CCO)ccc3C2=O)nc1N1CCC(F)(F)CC1 [Compound 165] | < 0.2 µM |
| CC(C)[C@H](N)C(=O)OCCS(=O)(=O)Nc1ccc2c(c1)C1(CCC3(CC3)CC1)CN(c1ccnc(NC3CC(F)(F)C3)n1)C2=O [Compound 135] | < 0.2 µM |
| N#Cc1ccc(N2CC3(CCC(F)(F)CC3)c3cc(NS(=O)(=O)CCO)ccc3C2=O)nc1NC1CC(F)(F)C1 [Compound 104] | < 0.2 µM |
| O=C1c2ccc(NS(=O)(=O)CCO)cc2C2(CCC3(CC3)CC2)CN1c1cccc(OC2CC(F)(F)C2)n1 [Compound 24] | 0.2 to 2 µM |

| Compound | IC50 |
| --- | --- |
| Cn1cc(N2CC3(CCC4(CC4)CC3)c3cc(NS(=O)(=O)CCO)ccc3C2=O)nc1N1CCC(F)(F)CC1 [Compound 20] | 0.2 to 2 µM |
| CCNC(=O)c1ccc(N2CC3(CCC4(CC4)CC3)c3cc(NS(=O)(=O)CCO)ccc3C2=O)nc1N1CCC(F)(F)CC1 [Compound 144] | < 0.2 µM |
| Cn1cnc(-c2ccc(N3CC4(CCC5(CC5)CC4)c4cc(NS(=O)(=O)CCO)ccc4C3=O)nc2NC2CC(F)(F)C2)c1 [Compound 169] | < 0.2 µM |
| NC(=O)c1ccc(N2CC3(CCC4(CC4)CC3)c3cc(NS(=O)(=O)CCO)ccc3C2=O)nc1N1CCC(F)(F)CC1 [Compound 139] | < 0.2 µM |
| O=C1c2ccc(NS(=O)(=O)CCO)cc2C2(CCC(F)(F)CC2)CN1c1ccnc(N2CCC(F)(F)CC2)n1 [Compound 67] | 0.2 to 2 µM |
| O=C1c2ccc(NS(=O)(=O)CCO)cc2C2(CCC3(CC3)CC2)CN1c1ccc(O)c(N2CCC(F)(F)CC2)n1 [Compound 137] | < 0.2 µM |
| N#Cc1ccc(N2CC3(CCC4(CC4)CC3)c3cc(NS(=O)(=O)CCO)cnc3C2=O)nc1N1CCC(F)(F)CC1 [Compound 59] | 0.2 to 2 µM |
| O=C1c2ccc(NS(=O)(=O)CCO)cc2C2(CCC3(CC3)CC2)CN1c1ccnc(N2CC(F)(F)C2)n1 [Compound 33] | 0.2 to 2 µM |
| O=C1c2ccc(NS(=O)(=O)CCO)cc2C2(CCC3(CC3)CC2)CN1c1ccc(OC(F)F)c(N2CCC(F)(F)CC2)n1 [Compound 155] | < 0.2 µM |
| CC1CCN(c2nc(N3CC4(CCC5(CC5)CC4)c4cc(NS(=O)(=O)CCO)ccc4C3=O)ccc2F)CC1 [Compound 37] | 0.2 to 2 µM |
| CC(c1cccc(N2CC3(CCC4(CC4)CC3)c3cc(NS(=O)(=O)CCO)ccc3C2=O)n1)N1CCC(F)(F)C1 (stereo not shown) [Compound 30] | 0.2 to 2 µM |
| CC1(F)CCC2(CC1)CN(c1ccc(C#N)c(NC3CC(F)(F)C3)n1)C(=O)c1ccc(NS(=O)(=O)CCO)cc12 (stereo not shown) [Compound 111] | 0.2 to 2 µM |
| CC1(F)CCC2(CC1)CN(c1ccnc(N3CCC(F)(F)CC3)n1)C(=O)c1ccc(NS(=O)(=O)CCO)cc12 (stereo not shown) [Compound 103] | 0.2 to 2 µM |
| N#Cc1ccc(N2CC3(CCC4(CC4)CC3)c3nc(NS(=O)(=O)CCO)ccc3C2=O)nc1N1CCC(F)(F)CC1 [Compound 70] | 0.2 to 2 µM |
| O=C1c2ccc(NS(=O)(=O)CCO)cc2C2(CCC3(CC3)CC2)CN1c1cncc(NC2CC(F)(F)C2)n1 [Compound 58] | 0.2 to 2 µM |
| O=C1c2ccc(NS(=O)(=O)CCO)cc2C2(CCC(=C(F)F)CC2)CN1c1ccnc(N2CCC(F)(F)CC2)n1 (stereo not shown) [Compound 77] | 0.2 to 2 µM |
| N#Cc1ccc(N2CC3(CCC4(CC4)CC3)c3cc(NS(=O)(=O)CC(F)(F)F)ccc3C2=O)nc1N1CCC(F)(F)CC1 [Compound 158] | < 0.2 µM |
| N#Cc1ccc(N2CC3(CCC4(CC4)CC3)c3cc(NS(=O)(=O)CCO)ccc3C2=O)nc1CN1CC(F)(F)C1 [Compound 57] | > 2 µM |
